Results from paper PMC8694143 (Microbiology Spectrum, 2021).
Converted amounts (≈) assume the structure as drawn. “Also recorded” adds a separate entry of the source. Non-standard residues stand in square brackets, D forms with d. Residues, ends and D or L forms follow the SMILES beside them. No end group written: not given here. *: point of attachment. 5FAM = O=C1OC2(c3ccc(O)cc3Oc3cc(O)ccc32)c2ccc(C(=O)*)cc21

Columns and labels:
[1] = Circular dichroism spectroscopy; assay type: physicochemical; conditions: CD, 50% TFE (vol/vol), peptide 0.2 mg/mL, room temperature
Method: Peptides were dissolved in ultrapure water or 50% TFE (vol/vol) at a concentration of 0.2 mg/mL for spectroscopy. Spectra of samples in a 1 mm pathlength quartz cuvette were recorded from 180 to 260 nm at 0.5 nm steps using an Applied Photophysics Chirascan Plus CD spectrophotometer operating at room temperature.

MRSA ATCC BAA-42 = experiment: MIC determination in broth; assay type: cell-based, Staphylococcus aureus; conditions: STIP3 variants, highest conc. tested 100 μg/mL; cation-adjusted MH broth, ~10^5 CFU/mL, 2-fold dilution series, 37°C, 16 h
Method: (§1) M. luteus ATCC 4698, S. aureus ATCC 29213, a panel of 7 MRSA (ATCC MP-2) strains, which includes ATCC BAA-41, BAA-42, BAA-44, BAA-1683, BAA-2094, BAA-2313, and 33592, and a series of additional bacterial isolates from human and veterinary cases were used in this study (Table S6). Bacterial strains were routinely grown in lysogeny broth (LB: 10 g/L tryptone, 5 g/L yeast extract, 10 g/L NaCl) at 30°C (M. luteus) or 37°C (Staphylococcus spp.) prior to use in specific experiments described below.
(§2) The MICs were measured for bioactive peptides identified from the initial screen. Cation-adjusted Mueller-Hinton (MH) broth was used as the growth medium for MIC determination experiments. Bacterial cultures were diluted to an OD of 5 × 10^−4 (∼10^5 CFU/mL) in 200 μL MH broth mixed with peptides in a 2-fold dilution series arrayed in 96-well plates. Plates were incubated without shaking at 30 or 37°C depending on the organism.

MRSA ATCC BAA-41 = experiment: MIC determination in broth; assay type: cell-based, Staphylococcus aureus; conditions: STIP3 variants, highest conc. tested 100 μg/mL; cation-adjusted MH broth, ~10^5 CFU/mL, 2-fold dilution series, 37°C, 16 h
Method: as §1, §2

S. aureus ATCC 29213 = experiment: MIC determination in broth; assay type: cell-based, Staphylococcus aureus; conditions: STIP3 variants, highest conc. tested 100 μg/mL; cation-adjusted MH broth, ~10^5 CFU/mL, 2-fold dilution series, 37°C, 16 h
Method: as §1, §2

MRSA ATCC 33592 = experiment: MIC determination in broth; assay type: cell-based, Staphylococcus aureus; conditions: for MIC (μg/mL) for MRSA ATCC 33592: Table 1 and text; for MIC (μg/mL) for MRSA ATCC 33592 / MIC, S. aureus ATCC 33592 (SCCmec III): cation-adjusted MH broth, ~10^5 CFU/mL, 37°C, 16 h; for MIC, S. aureus ATCC 33592 (SCCmec III): Table S5, STIP3 variants, highest conc. tested 100 μg/mL, 2-fold dilution series; for Increase of the MIC relative to STIP3-29: D-Lys substituted variants
Method: as §1, §2

MRSA ATCC BAA-44 = experiment: MIC determination in broth; assay type: cell-based, Staphylococcus aureus; conditions: STIP3 variants, highest conc. tested 100 μg/mL; cation-adjusted MH broth, ~10^5 CFU/mL, 2-fold dilution series, 37°C, 16 h
Method: as §1, §2

MRSA ATCC BAA-2094 = experiment: MIC determination in broth; assay type: cell-based, Staphylococcus aureus; conditions: STIP3 variants, highest conc. tested 100 μg/mL; cation-adjusted MH broth, ~10^5 CFU/mL, 2-fold dilution series, 37°C, 16 h
Method: as §1, §2

MRSA ATCC BAA-1683 = experiment: MIC determination in broth; assay type: cell-based, Staphylococcus aureus; conditions: STIP3 variants, highest conc. tested 100 μg/mL; cation-adjusted MH broth, ~10^5 CFU/mL, 2-fold dilution series, 37°C, 16 h
Method: as §1, §2

MRSA ATCC BAA-2313 = experiment: MIC determination in broth; assay type: cell-based, Staphylococcus aureus; conditions: STIP3 variants, highest conc. tested 100 μg/mL; cation-adjusted MH broth, ~10^5 CFU/mL, 2-fold dilution series, 37°C, 16 h
Method: as §1, §2

M. luteus ATCC 4698 = experiment: MIC determination in broth; assay type: cell-based, Micrococcus luteus; conditions: cation-adjusted MH broth, ~10^5 CFU/mL, 30°C, 48 h
Method: as §1, §2

S. aureus = experiment: MIC of STIP3-1 alanine variants in liquid broth; assay type: cell-based, Staphylococcus aureus; conditions: at 200 μg/mL
Method: The MICs were measured for bioactive peptides identified from the initial screen. […] […] Plates were incubated without shaking at 30 or 37°C depending on the organism.

SspA = SspA protease resuspended at 2 mg/mL in 100 mM HEPES (pH 7.8); conditions: 37°C, up to 5 h

| Compound | α-Helical content (%) [1] [%] | MIC, S. aureus ATCC 29213 (S. aureus ATCC 29213) | MIC (μg/mL) for MRSA ATCC 33592 (MRSA ATCC 33592) [µg/mL] | MIC, S. aureus ATCC 33592 (SCCmec III) (MRSA ATCC 33592) | MIC, M. luteus (M. luteus ATCC 4698) [µg/mL] | also measured |
| --- | --- | --- | --- | --- | --- | --- |
| CC[C@@H](C)[C@@H](NC(=O)[C@@H](Cc1c[nH]c2ccccc12)NC(=O)[C@@H](CCCCN)NC(=O)[C@H](NC(=O)[C@@H](CC(C)C)NC(=O)CNC(=O)CNC(=O)[C@H](NC(=O)[C@H](N)[C@H](C)O)C(C)C)C(C)C)C(=O)N[C@H](CC(C)C)C(=O)N[C@H](CCCCN)C(=O)N[C@@H](C(=O)N[C@@H](C(=O)N[C@H](CCCCN)C(=O)N[C@H](CCCCN)C(=O)N[C@H](Cc1ccccc1)C(=O)N[C@H](C)C(N)=O)C(C)C)[C@H](C)O [D-STIP3-29] (H-[dT][dV]GG[dL][dV][dK][dW][dI][dL][dK][dT][dV][dK][dK][dF][dA]-NH2; N-terminus assumed) | 47 | 6.25 µg/mL (≈ 3.31 µM) | 6.25 | 6.25 µg/mL (≈ 3.31 µM) | – | MIC, S. aureus ATCC BAA 42 (SCCmec VI) (MRSA ATCC BAA-42): 6.25 µg/mL (≈ 3.31 µM); MIC, S. aureus ATCC BAA 41 (SCCmec II) (MRSA ATCC BAA-41): 6.25 µg/mL (≈ 3.31 µM); MIC, S. aureus ATCC BAA 44 (SCCmec I) (MRSA ATCC BAA-44): 12.5 µg/mL (≈ 6.62 µM); MIC, S. aureus ATCC BAA 2094 (SCCmec V) (MRSA ATCC BAA-2094): 6.25 µg/mL (≈ 3.31 µM); MIC, S. aureus ATCC BAA 1683 (SCCmec IV) (MRSA ATCC BAA-1683): 6.25 µg/mL (≈ 3.31 µM); MIC, S. aureus ATCC BAA 2313 (SCCmec XI) (MRSA ATCC BAA-2313): 6.25 µg/mL (≈ 3.31 µM) |
| CC[C@@H](C)[C@@H](NC(=O)[C@@H](Cc1c[nH]c2ccccc12)NC(=O)[C@@H](CCCCN)NC(=O)[C@H](NC(=O)[C@@H](CC(C)C)NC(=O)CNC(=O)CNC(=O)[C@H](NC(=O)[C@H](NC(=O)c1ccc2c(c1)C(=O)OC21c2ccc(O)cc2Oc2cc(O)ccc21)[C@H](C)O)C(C)C)C(C)C)C(=O)N[C@H](CC(C)C)C(=O)N[C@H](CCCCN)C(=O)N[C@@H](C(=O)N[C@@H](C(=O)N[C@H](CCCCN)C(=O)N[C@H](CCCCN)C(=O)N[C@H](Cc1ccccc1)C(=O)N[C@H](C)C(N)=O)C(C)C)[C@H](C)O [FAM-D-STIP3-29] (5FAM-[dT][dV]GG[dL][dV][dK][dW][dI][dL][dK][dT][dV][dK][dK][dF][dA]-NH2; C-terminus assumed) | 55 | – | – | – | – | – |
| CC[C@H](C)[C@H](NC(=O)[C@H](Cc1c[nH]c2ccccc12)NC(=O)[C@H](CCCCN)NC(=O)[C@@H](NC(=O)[C@H](CC(C)C)NC(=O)CNC(=O)CNC(=O)[C@@H](NC(=O)[C@@H](NC(=O)c1ccc2c(c1)C(=O)OC21c2ccc(O)cc2Oc2cc(O)ccc21)[C@@H](C)O)C(C)C)C(C)C)C(=O)N[C@@H](CC(C)C)C(=O)N[C@@H](CCCCN)C(=O)N[C@H](C(=O)N[C@H](C(=O)N[C@@H](CCCCN)C(=O)N[C@@H](CCCCN)C(=O)N[C@@H](Cc1ccccc1)C(=O)N[C@@H](C)C(N)=O)C(C)C)[C@@H](C)O [FAM-L-STIP3-29] (5FAM-TVGGLVKWILKTVKKFA-NH2; C-terminus assumed) | 72 | – | – | – | – | – |
| CC[C@H](C)[C@H](NC(=O)[C@H](Cc1c[nH]c2ccccc12)NC(=O)[C@H](CCCCN)NC(=O)[C@@H](NC(=O)[C@H](CC(C)C)NC(=O)CNC(=O)CNC(=O)[C@@H](NC(=O)[C@@H](N)[C@@H](C)O)C(C)C)C(C)C)C(=O)N[C@@H](CC(C)C)C(=O)N[C@H](CCCCN)C(=O)N[C@H](C(=O)N[C@H](C(=O)N[C@@H](CCCCN)C(=O)N[C@@H](CCCCN)C(=O)N[C@@H](Cc1ccccc1)C(=O)N[C@@H](C)C(N)=O)C(C)C)[C@@H](C)O [STIP3-29-D1] (H-TVGGLVKWIL[dK]TVKKFA-NH2; N-terminus assumed) | 51 | 12.5 µg/mL (≈ 6.62 µM) | 25 | 25 µg/mL (≈ 13.2 µM) | – | Increase of the MIC relative to STIP3-29 (MRSA ATCC 33592): 4 fold |
| CC[C@H](C)[C@H](NC(=O)[C@H](Cc1c[nH]c2ccccc12)NC(=O)[C@@H](CCCCN)NC(=O)[C@@H](NC(=O)[C@H](CC(C)C)NC(=O)CNC(=O)CNC(=O)[C@@H](NC(=O)[C@@H](N)[C@@H](C)O)C(C)C)C(C)C)C(=O)N[C@@H](CC(C)C)C(=O)N[C@H](CCCCN)C(=O)N[C@H](C(=O)N[C@H](C(=O)N[C@@H](CCCCN)C(=O)N[C@H](CCCCN)C(=O)N[C@@H](Cc1ccccc1)C(=O)N[C@@H](C)C(N)=O)C(C)C)[C@@H](C)O [STIP3-29-D3] (H-TVGGLV[dK]WIL[dK]TVK[dK]FA-NH2; N-terminus assumed) | 32 | > (The > symbol indicates that no inhibition was observed at 100 μg/mL for the STIP3 variants) | >100 | > (The > symbol indicates that no inhibition was observed at 100 μg/mL for the STIP3 variants) | – | Increase of the MIC relative to STIP3-29 (MRSA ATCC 33592): inactivation |
| AVGGLVKWILDTVKKFA [T1A] | – | – | – | – | 12.5 | Activity against S. aureus in nutrient broth (S. aureus): maintained activity |
| MTKDIVETVGGLVKWILDTVKKFA | – | – | – | – | – | fragment found (SspA): TVGGLVKWILDTVKKFA; also recorded: TVGGLVKWILD; also recorded: TVKKFA; also recorded: MTKDIVE |
| TAGGLVKWILDTVKKFA [V2A] | – | – | – | – | 50 | – |
| TVGGAVKWILDTVKKFA [L5A] | – | – | – | – | 100 | – |
